The source of these data is patent US10696972B2, “Method for improving learning” (St. Jude Children's Research Hospital, Inc., priority 2015, dated 2020).

In data set [1] the test system is A1R mRNA. Briefly: Cortical map plasticity in the ACx after passive tone exposure, A1R shRNA knock-down. The format is in vivo, mouse. Conditions: adult WT mice, shRNA injected into auditory thalamus (MGv), passive exposure to a 9.8-kHz tone. The protocol: (§1) Mice were housed in ventilated sound-proof chambers with ad libitum food and water and maintained on a 12:12 hour light:dark cycle. Mice were exposed to continuous sound stimulation for 5 to 14 days, consisting of repeated trains of tones. Each train consisted of 5 tones delivered at 5 Hz. A pure tone of certain frequencies (7 kHz, 7.9 kHz, 9.8 kHz, 11.4 kHz, or 16.4 kHz) was used. The tone duration was 50 ms with 5-ms cosine onset/offset ramps at 70-dB sound pressure level (SPL). Trains were separated by 1 s. Naïve (nonexposed) mice were housed in a similar fashion but received no sound stimulation.
Mice were anesthetized with sodium pentobarbital (50 mg/kg) and chlorprothixene (0.2 mg) followed by supplemental doses of sodium pentobarbital (15-25 mg/kg supplements as needed). Spike responses to sound stimulation were recorded from the primary (A1) ACx (depth, 350-420 μm from the pial surface) with Epoxylite-coated tungsten microelectrodes (2.0 MΩ at 1 kHz; FHC, Brunswick, Me.). Frequency response areas (FRAs) were measured with randomly presented tone pips of varying frequency (4.0-44.6 kHz in 0.1-octave increments, 20-ms duration, 5-ms raised cosine onset/offset ramps, 500-ms intertone interval) and level (0- to 70-dB SPL in 10-dB increments). Tones were generated by an electrostatic speaker [Tucker-Davis Technologies (TDT), Alachua, Fla.], which was placed 10 cm from the contralateral ear of the mouse. The ipsilateral ear was plugged with agar. Spike responses to tone pips were amplified with an RA4PA fiber optic preamplifier, filtered (high pass=250 Hz, low pass=5000 Hz), and digitized with an RZ6 real-time processor (TDT). The threshold for spike detection was set at a signal-to-noise ratio of 3:1. TDT System 3 software (OpenEx) controlled both sound stimulus generation and response acquisition and was used for data storage. Cortical maps in the A1 were generated from FRAs measured at 30 to 40 sites per mouse, each separated by 50 to 100 μm. FRAs were analyzed with TDT System 3 software (Open Explorer) for characteristic frequencies (CFs) collated in bins of 0.22 octaves. […]

Data set [2] has as its system Nt5e. Kind of data set: Cortical map plasticity in the ACx after passive tone exposure, Nt5e shRNA knock-down. The format is in vivo, mouse. Particulars: mature WT mice, shRNA injected into auditory thalamus, exposed to 11.4 kHz. The protocol: as §1
Mice were anesthetized with sodium pentobarbital (50 mg/kg) and chlorprothixene (0.2 mg) followed by supplemental doses of sodium pentobarbital (15-25 mg/kg supplements as needed). Spike responses to sound stimulation were recorded from the primary (A1) ACx (depth, 350-420 μm from the pial surface) with Epoxylite-coated tungsten microelectrodes (2.0 MΩ at 1 kHz; FHC, Brunswick, Me.). Frequency response areas (FRAs) were measured with randomly presented tone pips of varying frequency (4.0-44.6 kHz in 0.1-octave increments, 20-ms duration, 5-ms raised cosine onset/offset ramps, 500-ms intertone interval) and level (0- to 70-dB SPL in 10-dB increments). […] Cortical maps in the A1 were generated from FRAs measured at 30 to 40 sites per mouse, each separated by 50 to 100 μm. […]

Regarding “A1R shRNA (123): shRNA against A1R mRNA, lentivector; coding DNA 5′-CGATGCTACCTTCTGCTTCATCGTATCCC-3′ (SEQ ID NO: 10)”, in data set [1], the ACx map plasticity result was “sufficient to induce ACx map plasticity”. On the same count and under the same terms, the result for “A1R shRNA (789): shRNA against A1R mRNA, lentivector; coding DNA 5′-CCAGAAACCCAGCATCCTCATCTACATTG-3′ (SEQ ID NO: 11)” reads “sufficient to induce ACx map plasticity”. Consider “Nt5e shRNA (1264): shRNA against Nt5e, lentivector; coding DNA 5′-ACATTTGACCTCGTCCAATTAAAAGGGTC-3′ (SEQ ID NO: 12)”, for which the “percentage of sites with a CF of 11.4 kHz compared to naïve mice” value in data set [2] is recorded as “significantly larger percentage of sites with a CF of 11.4 kHz”. The same measure, in the same setting: the result for “Nt5e shRNA (1366): shRNA against Nt5e, lentivector; coding DNA 5′-GGAATCCATGTGGTGTACGATATTAACCG-3′ (SEQ ID NO: 13)” reads “significantly larger percentage of sites with a CF of 11.4 kHz”.

For “scrambled (control) shRNA: scrambled control shRNA; coding DNA 5′-TACGTCCAAGGTCGGGCAGGAAGA-3′ (SEQ ID NO: 9) [reference compound]”, in data set [1], the ACx map plasticity result is “no cortical map plasticity”.
